Test results reported in patent publication US9187413B2, “Peripherally restricted FAAH inhibitors” (The Regents of the University of California, priority 2010, dated 2015).
Like-named read-outs stand apart in the source and are kept apart here.

What was measured:
FAAH = FAAH (Mus musculus (Mouse), UniProt O08914); assay: FAAH inhibition ex vivo after systemic administration in mice; details: for ability to access the brain after systemic administration: mice, 1 mg-kg^-1, i.p.; for inhibition at 1 mg/kg: mouse, ip, ex vivo 1 h after a single injection in mice (1 mg-kg^-1, i.p.)
Description: Drug preparation for in vivo experiments Drugs were dissolved in polyethylene glycol 400/Tween-80/saline (1/1/18; by volume) and administered by i.p. (5-10 mL-kg^−1) or s.c. injection (10 mL-kg^−1).

rat brain FAAH = rat brain FAAH (Rattus norvegicus (Rat), UniProt P97612); details: membrane preparation of rat brain
Excerpt: Enzyme assays. We conducted standard FAAH and monoacylglycerol lipase assays as described^15,37, using as substrates [^3H]-anandamide (a gift of the National Institute on Drug Abuse) and 2-oleoyl-sn-glycerol (Nu-Check Prep, Elysian, Minn.), respectively.

[1] = tested on: carrageenan-induced inflammation; assay: Carrageenan-induced hyperalgesia, allodynia and paw edema; assay type: in vivo, mice; details: Swiss mice, 1 mg-kg^-1, i.p., carrageenan
Description: Behavioral tests. We measured nocifensive responses elicited by i.p. injection of acetic acid in male Swiss and C57B1/6 (wild-type or FAAH-deficient) mice^40, intraplantar injection of carrageenan in male Swiss mice^20, intraplantar injection of formalin in male Sprague-Dawley rats^41, and sciatic nerve ligation in male Swiss mice^39.
Behavioral tests Acetic acid-induced writhing was measured in Swiss mice or C57B1/6 mice (wild-type and FAAH-deficient), as described^40 with minor modifications. Briefly, the mice were acclimated to the experimental room for 2 h. Each animal was injected with acetic acid (150 μL, 0.6% in saline) and placed into a glass cylinder. Abdominal stretches (extension of body and hind limbs) were counted for 20 min, starting 5 min after acetic acid injection. […] Behavior was scored by an observer blinded to the treatment conditions. Formalin-induced nociception was assessed in Sprague-Dawley rats, as described^41. The rats were singly housed and kept in a shared holding room under a 12:12 h light:dark cycle. They were given free access to food and water, and allowed to acclimate to the facility for a week before testing. […] They were acclimated to the observation container (clear plexiglas box, 29×29×25 cm) for 15 min before receiving an injection of formalin (50 μL, 5% in saline) into the dorsal surface of the right hind paw. Immediately after formalin injection, the rats were returned to the observation container and nocifensive behavior was recorded for 60 min with a video camera. Recordings were analyzed by observers blinded to treatment conditions. Nocifensive behavior was measured continuously for 60 min^41. […] Each 5-min bin was analyzed for time spent (1) lifting and (2) licking or biting the injected paw. Nocifensive behavior was analyzed using the composite pain score weighted scores technique (CPS-WST1,2) calculated for the entire time of observation (0-60 min) and, separately, for the first (0-10 min) and second phase (10-60 min) of the behavioral response^46. The area under the curve (AUC) corresponding to CPS-WST1,2 was calculated using the trapezoidal rule. Paw edema was induced in mice by injection into the right hind paws of 50 μL of sterile saline containing 1% λ-carrageenan. Paw volumes were measured using a plethysmometer (Ugo Basile, Milan, Italy). […] Rimonabant and AM630 (1 mg kg^−1, i.p.) were injected 30 min before carrageenan. Mechanical hyperalgesia was assessed by measuring the latency(s) to withdraw the paw from a constant mechanical pressure exerted onto its dorsal surface. A 15-g calibrated glass cylindrical rod (diameter=10 mm) chamfered to a conical point (diameter=3 mm) was used to exert the mechanical force. The weight was suspended vertically between two rings attached to a stand and was free to move vertically. A cutoff time of 3 min was used. Thermal hyperalgesia was assessed as described^47, measuring the latency to withdraw the hind paw from a focused beam of radiant heat (thermal intensity: infrared 3.0) applied to the plantar surface, using a commercial apparatus (Ugo Basile, Varese, Italy). The cutoff time was set at 30 s. Mechanical allodynia was assessed by applying a graded force to the plantar hind paw surface with a Von Frey filament, using a Dynamic Plantar Anesthesiometer (Ugo Basile). The cutoff force was set at 50 g.

Fos protein = assay: Formalin-induced Fos expression in lumbar spinal cord; assay type: in vivo; details: rats, 2 mg-kg^-1, i.p., administered without URB937
Description: Fos expression. We measured Fos protein levels by quantitative immunocytochemistry^5 on slices of lumbar (L4/L5) spinal cord from male Sprague-Dawley rats.
Fos immunohistochemistry Two hours after formalin injection into the dorsal paw, rats received a lethal dose of Nembutal (50 mg-mL^−1). They were perfused through the heart with 100 mL of 1% heparinized phosphate buffered saline (PBS) followed by 300 mL of ice-cold 4% paraformaldehyde. The lumbar-sacral region of the spinal cord was collected from each rat. Spinal cords were post fixed in 4% paraformaldehyde at 4° C. for 24 h and then cryoprotected in 30% sucrose at 4° C. for 24-48 hours. Spinal cords were cryostat-cut into 40 μm transverse sections at the level of the lumbar enlargement (L4/L5). Free floating alternating sections were kept in a series of wells filled with PBS. Every fourth section was processed for Fos immunoreactivity to ensure that the same cell would not be counted twice. Endogenous peroxidases were inactivated by incubation in hydrogen peroxide. […]
Selection of sections and quantification of the number of Fos-positive cells was performed by an observer blinded to experimental conditions. […] Using Image J, Fos expressing cells were counted in each subdivision, regardless of staining intensity, by an observer blinded to experimental treatments.

[2] = brain, read-out: FAAH Inhibition in brain (%)
[3] = liver, read-out: FAAH Inhibition in liver (%)

Chain of rat brain FAAH (P97612 whole entry): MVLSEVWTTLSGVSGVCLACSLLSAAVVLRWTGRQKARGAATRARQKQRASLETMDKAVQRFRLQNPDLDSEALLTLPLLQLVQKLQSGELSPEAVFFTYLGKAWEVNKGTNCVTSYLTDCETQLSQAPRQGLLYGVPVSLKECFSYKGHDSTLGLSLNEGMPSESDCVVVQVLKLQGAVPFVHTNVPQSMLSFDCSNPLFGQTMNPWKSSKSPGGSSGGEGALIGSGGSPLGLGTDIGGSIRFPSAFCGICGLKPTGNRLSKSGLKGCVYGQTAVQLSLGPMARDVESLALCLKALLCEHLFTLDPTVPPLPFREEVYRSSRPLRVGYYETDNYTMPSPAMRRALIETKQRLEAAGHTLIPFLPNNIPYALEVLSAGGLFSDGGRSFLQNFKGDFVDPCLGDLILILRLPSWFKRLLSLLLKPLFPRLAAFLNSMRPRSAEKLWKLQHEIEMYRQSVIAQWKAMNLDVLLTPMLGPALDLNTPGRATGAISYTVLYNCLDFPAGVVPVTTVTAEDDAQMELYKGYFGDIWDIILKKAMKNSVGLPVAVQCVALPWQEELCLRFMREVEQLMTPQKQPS
Chain of FAAH (O08914 whole entry): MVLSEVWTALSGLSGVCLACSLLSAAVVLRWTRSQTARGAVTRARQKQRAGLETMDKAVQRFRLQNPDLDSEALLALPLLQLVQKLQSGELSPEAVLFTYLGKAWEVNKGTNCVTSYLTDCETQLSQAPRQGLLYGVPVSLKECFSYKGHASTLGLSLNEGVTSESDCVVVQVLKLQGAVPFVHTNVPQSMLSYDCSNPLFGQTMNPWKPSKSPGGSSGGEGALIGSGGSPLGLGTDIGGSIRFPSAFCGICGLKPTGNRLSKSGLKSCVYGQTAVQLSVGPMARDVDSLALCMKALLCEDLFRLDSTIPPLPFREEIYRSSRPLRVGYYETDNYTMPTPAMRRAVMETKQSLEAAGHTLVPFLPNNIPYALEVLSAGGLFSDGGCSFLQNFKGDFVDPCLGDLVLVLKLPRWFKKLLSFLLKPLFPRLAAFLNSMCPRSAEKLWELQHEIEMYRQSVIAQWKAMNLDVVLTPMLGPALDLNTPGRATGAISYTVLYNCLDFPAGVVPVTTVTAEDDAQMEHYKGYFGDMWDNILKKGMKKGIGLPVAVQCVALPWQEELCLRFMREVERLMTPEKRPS

Row | Structure (SMILES) | ability to access the brain after systemic administration (FAAH) | IC50 (rat brain FAAH) | inhibition at 1 mg/kg (FAAH; [2]) | inhibition at 1 mg/kg (FAAH; [3]) | hyperalgesia and allodynia in contralateral (non-injected) paws [1] | formalin-induced Fos levels, antagonist without URB937 (Fos protein)
1 | COc1ccc(OC(=O)NC2CCCCC2)cc1-c1cccc(C(N)=O)c1 [Compound 1c] | readily entered the brain | – | – | – | – | –
2 | NC(=O)c1cccc(-c2cc(OC(=O)NC3CCCCC3)ccc2N)c1 [Compound 1f] | largely excluded | 42.5 ± 4.2 nM | 23.2 ± 2.1% | 92.2 ± 0.6% | – | –
3 | Cc1ccc(OC(=O)NC2CCCCC2)cc1-c1cccc(C(N)=O)c1 [Compound 1d] | readily entered the brain | 20.5 ± 0.6 nM | 91.9 ± 1.5% | 93 ± 1.1% | – | –
4 | COc1ccc(C(=O)c2c(C)n(CCN3CCOCC3)c3cc(I)ccc23)cc1 [AM630, reference compound] | – | – | – | – | had no effect | –
5 | NC(=O)c1cccc(-c2cccc(OC(=O)NC3CCCCC3)c2)c1 [Compound 1a, cyclohexylcarbamic acid 3′-carbamoylbiphenyl-3-yl ester, reference compound] | – | – | 96.2 ± 0.4% | – | – | –
6 | Cc1c(C(=O)NN2CCCCC2)nn(-c2ccc(Cl)cc2Cl)c1-c1ccc(Cl)cc1 [rimonabant, reference compound] | – | – | – | – | had no effect | did not significantly alter Fos levels
7 | NC(=O)c1cccc(-c2cc(OC(=O)NC3CCCCC3)ccc2F)c1 [Compound 1e] | readily entered the brain | 49.7 ± 5.8 nM | 89.7 ± 1.3% | 90.7 ± 1.2% | – | –
